Reference: US6667327B2, “Pyridine amido derivatives” (Hoffmann-La Roche Inc., priority 2003, dated 2003)

Columns and labels:
[1] = biological target: T1, human MAO-A (Homo sapiens, UniProt P21397); assay: [3H]Ro 41-1049 binding assay for MAO-A on membranes of transfected EBNA cells; settings: 20 nM [3H]Ro 41-1049, 1 hour at 37° C., membranes of EBNA cells transfected with human MAO-A
T1 construct: expressed in transfected cells; host or cells: EBNA cells (transient transfection); cell membranes
T1 sequence (P21397 1-527): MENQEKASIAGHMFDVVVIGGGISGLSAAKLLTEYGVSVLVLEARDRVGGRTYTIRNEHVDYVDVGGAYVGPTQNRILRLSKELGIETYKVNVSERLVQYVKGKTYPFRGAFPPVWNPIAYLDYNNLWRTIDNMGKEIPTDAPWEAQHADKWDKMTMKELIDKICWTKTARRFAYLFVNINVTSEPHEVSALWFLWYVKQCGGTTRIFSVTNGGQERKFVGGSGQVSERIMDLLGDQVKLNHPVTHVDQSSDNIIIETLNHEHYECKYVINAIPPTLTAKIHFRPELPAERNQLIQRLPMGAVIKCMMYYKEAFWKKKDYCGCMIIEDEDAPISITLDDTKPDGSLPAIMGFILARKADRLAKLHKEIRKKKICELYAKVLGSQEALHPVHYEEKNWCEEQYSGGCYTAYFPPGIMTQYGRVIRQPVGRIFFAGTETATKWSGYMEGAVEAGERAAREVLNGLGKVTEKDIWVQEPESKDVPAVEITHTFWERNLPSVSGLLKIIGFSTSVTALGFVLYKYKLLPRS
Procedure: (§1) The cDNA's encoding human MAO-A and MAO-B were transiently transfected into EBNA cells using the procedure described by E.-J. Schlaeger and K. Christensen (Transient Gene Expression in Mammalian Cells Grown in Serum-free Suspension Culture; Cytotechnology, 15: 1-13, 1998). After transfection, cells were homogeneised by means of a Polytron homogeneiser in 20 mM Tris HCI buffer, pH 8.0, containing 0.5 mM EGTA and 0.5 mM phenylmethanesulfonyl fluoride. Cell membranes were obtained by centrifugation at 45,000×g and, after two rinsing step with 20 mM Tris HCI buffer, pH 8.0, containing 0.5 mM EGTA, membranes were eventually re-suspended in the above buffer and aliquots stored at −80° C. until use.
(§2) MAO-A and MAO-B activities were assayed by [^3H]Ro 41-1049 [tritiated N-(2-aminoethyl)-5-(3-fluorophenyl)-4-thiazole-carboxamide] and [^3H] Ro 19-6327 [tritiated N-(2-aminoethyl)-5-chloro-2-pyridinecarboxamide, [^3H] lazabemide] binding, respectively, following the methods described by Cesura et al. (Characterization of the binding of [^3H]Ro 41-1049 to the active site of monoamine oxidase-A, Molec. Pharmacol. 1990, 37, 358-366; [^3H]Ro 19-6327: a reversible ligand and affinity-labeling probe for monoamine oxidase-B, Eur. J. Pharmacol., 1989, 162, 457-465). Briefly, membrane aliquots were incubated in the presence of 20 nM [^3H]Ro 41-1049 (MAO-A assay) and [^3H]Ro 19-6327 (MAO-B assay) for 1 hour at 37° C. and 25° C., respectively, with or without various concentrations of the compounds, in a final volume of 0.2 ml. The incubation buffer consisted of 50 mM Tris, 130 mM NaCl, 5 mM KCI, 1 mM MgCl2, 0.5 mM EGTA, buffered to pH 7.4 with HCl. The assay was terminated by filtering the samples through GF/C filters (Unifilter-96, Canberra Packard). The radioactivity retained on the filters was eventually counted for radioactivity by means of a Packard Top-Count scintillation counter, after addition of Microscint 40 scintillation fluid (Canberra Packard). Non-specific binding was determined in the presence of 10 μM clorgyline for MAO-A or 10 μM L-deprenyl for MAO-B.
(§3) IC50 values, that is, the concentration of a test compound of formula I required to inhibit the MAO-B enzyme activity by 50%, were determined from inhibition curves obtained using nine inhibitor concentrations in duplicate, by fitting data to a four parameter logistic equation using a computer program.

[2] = biological target: T2, human MAO-B (Homo sapiens, UniProt P27338); assay: [3H]Ro 19-6327 binding assay for MAO-B on membranes of transfected EBNA cells; settings: 20 nM [3H]Ro 19-6327, 1 hour at 25° C., membranes of EBNA cells transfected with human MAO-B
T2 construct: expressed in transfected cells; host or cells: EBNA cells (transient transfection); cell membranes
T2 sequence (P27338 1-520): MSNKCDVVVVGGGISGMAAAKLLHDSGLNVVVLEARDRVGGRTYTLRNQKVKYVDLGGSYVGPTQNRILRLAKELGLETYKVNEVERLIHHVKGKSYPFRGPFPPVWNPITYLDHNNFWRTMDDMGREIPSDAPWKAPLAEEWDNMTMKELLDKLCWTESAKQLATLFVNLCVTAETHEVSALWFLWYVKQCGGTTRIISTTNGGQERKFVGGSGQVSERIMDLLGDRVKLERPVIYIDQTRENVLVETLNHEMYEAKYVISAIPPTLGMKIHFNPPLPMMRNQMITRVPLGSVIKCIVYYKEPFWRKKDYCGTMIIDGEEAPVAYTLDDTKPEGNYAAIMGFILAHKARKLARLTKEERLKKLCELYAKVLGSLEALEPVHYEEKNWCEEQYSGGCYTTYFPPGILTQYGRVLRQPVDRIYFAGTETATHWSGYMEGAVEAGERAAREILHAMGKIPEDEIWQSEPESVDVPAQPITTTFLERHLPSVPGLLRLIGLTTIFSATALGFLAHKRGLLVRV
Procedure: as §1, §2, §3

Row | SMILES | IC50 [1] [µM] | IC50 [2] [µM]
1 | C[C@H](NC(=O)c1ccc(OCc2ccc(F)cc2)cn1)C(N)=O [Example 11, (S)-5-(4-Fluoro-benzyloxy)-pyridine-2-carboxylic Acid (1-carbamoyl-ethyl)-amide] | > 10 | 0.07
2 | NC(=O)CNC(=O)c1ccc(OCc2ccccc2)nc1 [Example 1, 6-Benzyloxy-N-carbamoylmethyl-nicotinamide] | > 10 | 0.033
3 | NC(=O)CNC(=O)c1ccc(OCc2ccc(F)c(F)c2)cn1 [Example 9, 5-(3,4-Difluoro-benzyloxy)-pyridine-2-carboxylic Acid Carbamoylmethyl-amide] | > 10 | 0.043

More lines, now with the values ahead:

Row | IC50 [1] [µM] | IC50 [2] [µM] | SMILES
4 | > 10 | 0.03 | NC(=O)CNC(=O)c1ccc(OCc2ccc(F)cc2)cn1 [Example 8, 5-(4-Fluoro-benzyloxy)-pyridine-2-carboxylic Acid Carbamoylmethyl-amide]
5 | 4.15 | 0.03 | NC(=O)CNC(=O)c1ccc(OCc2cccc(F)c2)nc1 [Example 2, N-Carbamoylmethyl-6-(3-fluoro-benzyloxy)-nicotinamide]
6 | 9.16 | 0.028 | NC(=O)CNC(=O)c1ccc(OCc2cccc(F)c2)cn1 [Example 7, 5-(3-Fluoro-benzyloxy)-pyridine-2-carboxylic Acid Carbamoylmethyl-amide]
